Results on nine compounds are retold here after PubChem BioAssay (NCI).

Structures are written as SMILES.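 Grown in 96-well plates, cells were treated for 48 hours with each compound at five concentrations. Insufficient inhibition: endpoint recorded as highest concentration tested. At the GI50, growth is halved. TGI denotes the concentration required for complete inhibition of growth.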

Some test systems named below: HCT-15 colon; HOP-62 NSCLC; K-562 leukemia; MDA-MB-231 breast; OVCAR-3 ovarian; OVCAR-5 ovarian; RXF 393 renal; SK-MEL-5 melanoma; U251 CNS; UACC-257 melanoma.
Holding throughout (test): NCI tumour cell line growth inhibition, 48 h

Turning to `C#Cc1cccc(Oc2ccc(NC(=O)CCl)cc2)c1`, the GI50 with HCT-15 colon is 6.36 µM; in the assay with HOP-62 NSCLC, greater than 82.5 µM; with K-562 leukemia, 34.4 µM; in the assay on MDA-MB-231 breast, greater than 82.5 µM; in the assay on OVCAR-3 ovarian, greater than 82.5 µM; with OVCAR-5 ovarian, greater than 82.5 µM. Further, the GI50 in the assay on RXF 393 renal is greater than 82.5 µM; in the assay on SK-MEL-5 melanoma it was 33.6 µM; with U251 CNS it was greater than 82.5 µM; in the assay on UACC-257 melanoma, greater than 82.5 µM. Also, the TGI in the assay with HCT-15 colon, in the assay on HOP-62 NSCLC, in the assay with K-562 leukemia, with MDA-MB-231 breast, in the assay with OVCAR-3 ovarian and with OVCAR-5 ovarian was greater than 82.5 µM throughout. For the same compound, the TGI with RXF 393 renal, in the assay with SK-MEL-5 melanoma, in the assay with U251 CNS and with UACC-257 melanoma was greater than 82.5 µM in each case.
Take `CCOc1ccc2ccc3cccnc3c2n1`: the TGI with HCT-15 colon was greater than 100 µM; with HOP-62 NSCLC, 61.4 µM; in the assay on K-562 leukemia it was greater than 100 µM; in the assay on MDA-MB-231 breast, greater than 100 µM; in the assay on OVCAR-3 ovarian it was 58.4 µM; in the assay on OVCAR-5 ovarian it was greater than 100 µM. Besides, the TGI is greater than 100 µM in the assay on RXF 393 renal, greater than 100 µM with SK-MEL-5 melanoma, greater than 100 µM in the assay on U251 CNS and 85.1 µM in the assay on UACC-257 melanoma.
Consider `COC1C(O)C(C)OC(OC2CC3CCC4C(CCC5(C)C(C6=CC(=O)OC6)CCC45O)C3(O)C(OC(C)=O)C2)C1O` (stereo not given), for which the TGI in the assay on HCT-15 colon was 5.41 µM; in the assay on HOP-62 NSCLC it was 2.59 µM; with K-562 leukemia it was greater than 100 µM; in the assay on MDA-MB-231 breast it was 97.3 µM; in the assay on OVCAR-3 ovarian it was 3.38 µM; in the assay with OVCAR-5 ovarian it was 5.87 µM. Also, the TGI in the assay with RXF 393 renal is 1.32 µM; in the assay on SK-MEL-5 melanoma, 2.03 µM; in the assay on U251 CNS, greater than 24.2 µM; in the assay on UACC-257 melanoma, 16.5 µM.
As for `Cc1ccc(C2C3=C(N=c4s/c(=C/c5ccc(Br)cc5)c(=O)n42)c2ccc4ccccc4c2OCC3)cc1` (stereo not given), the GI50 in the assay on HCT-15 colon was 2.89 µM; in the assay on HOP-62 NSCLC it was greater than 100 µM; with K-562 leukemia, greater than 100 µM; in the assay on MDA-MB-231 breast, greater than 100 µM; in the assay with OVCAR-3 ovarian, greater than 100 µM; in the assay with OVCAR-5 ovarian it was greater than 100 µM. The GI50 in the assay on RXF 393 renal was greater than 100 µM; with SK-MEL-5 melanoma, greater than 100 µM; in the assay with U251 CNS it was greater than 100 µM; in the assay on UACC-257 melanoma it was 35.7 µM. For the same compound, the TGI with HCT-15 colon, in the assay on HOP-62 NSCLC, in the assay on K-562 leukemia, with MDA-MB-231 breast, in the assay on OVCAR-3 ovarian and with OVCAR-5 ovarian was greater than 100 µM each time. For the same compound, the TGI with RXF 393 renal, in the assay with SK-MEL-5 melanoma, in the assay with U251 CNS and with UACC-257 melanoma was greater than 100 µM each time.
For `CC1SC(c2c(Cl)cccc2Cl)N(NC(=O)C(O)c2ccccc2)C1=O` (stereo not given), the GI50 in the assay on HCT-15 colon is 47.3 µM; in the assay with HOP-62 NSCLC, 89.3 µM; in the assay on K-562 leukemia it was 39.9 µM; in the assay with MDA-MB-231 breast it was 31.6 µM; with OVCAR-3 ovarian, 54.1 µM; in the assay on OVCAR-5 ovarian, greater than 100 µM. The GI50 is 93.2 µM in the assay on RXF 393 renal, 68.4 µM in the assay with SK-MEL-5 melanoma, 54.1 µM in the assay on U251 CNS and 86.3 µM in the assay with UACC-257 melanoma. The TGI with HCT-15 colon, in the assay with HOP-62 NSCLC, with K-562 leukemia, with MDA-MB-231 breast, in the assay on OVCAR-3 ovarian and with OVCAR-5 ovarian was greater than 100 µM in each case. Besides, the TGI with RXF 393 renal, in the assay on SK-MEL-5 melanoma, with U251 CNS and in the assay on UACC-257 melanoma was greater than 100 µM throughout.
Take `CN1CCN(c2ccc(NC3=C(Cl)C(=O)c4ncccc4C3=O)cc2C#N)CC1`: the GI50 is 1.64 µM in the assay on HCT-15 colon; 11.8 µM with HOP-62 NSCLC; 0.312 µM in the assay on K-562 leukemia; 1.57 µM in the assay on MDA-MB-231 breast; 0.229 µM with OVCAR-3 ovarian; 2.75 µM in the assay with OVCAR-5 ovarian. In addition, the GI50 is 1.4 µM in the assay with RXF 393 renal, 1.83 µM in the assay with SK-MEL-5 melanoma, 2.01 µM in the assay on U251 CNS and 1.73 µM with UACC-257 melanoma. Also, the TGI in the assay with HCT-15 colon was 3.53 µM; with HOP-62 NSCLC it was 34.7 µM; in the assay on K-562 leukemia, greater than 100 µM; in the assay on MDA-MB-231 breast it was 4.17 µM; in the assay on OVCAR-3 ovarian, 1 µM; in the assay with OVCAR-5 ovarian, 7.3 µM. Moreover, the TGI worked out at 2.73 µM in the assay on RXF 393 renal, 3.38 µM in the assay with SK-MEL-5 melanoma, 4.44 µM in the assay on U251 CNS and 3.29 µM in the assay on UACC-257 melanoma.
Take `COc1ccc(/C=C(/C)[N+](=O)[O-])cc1`: the TGI with HCT-15 colon worked out at 7.36 µM; with HOP-62 NSCLC, 3.61 µM; in the assay with K-562 leukemia, 16 µM; in the assay with MDA-MB-231 breast, 9.89 µM; in the assay with OVCAR-3 ovarian, 3.26 µM; in the assay with OVCAR-5 ovarian, 9.47 µM. For the same compound, the TGI was 3.16 µM with RXF 393 renal, 5.92 µM in the assay with SK-MEL-5 melanoma, 3.05 µM in the assay with U251 CNS and 3.08 µM with UACC-257 melanoma.
With `CS(=O)(=O)CCn1c(=O)c(Oc2ccc(F)cc2F)cc2cnc(NC3CCOCC3)nc21`, the GI50 in the assay with HCT-15 colon, with HOP-62 NSCLC, in the assay with K-562 leukemia, in the assay on MDA-MB-231 breast, with OVCAR-3 ovarian and with OVCAR-5 ovarian was greater than 25 µM in each case. In addition, the GI50 in the assay on RXF 393 renal, in the assay with SK-MEL-5 melanoma, in the assay on U251 CNS and in the assay on UACC-257 melanoma was greater than 25 µM in each case. Moreover, the TGI in the assay on HCT-15 colon, in the assay on HOP-62 NSCLC, in the assay with K-562 leukemia, in the assay with MDA-MB-231 breast, with OVCAR-3 ovarian and in the assay on OVCAR-5 ovarian was greater than 25 µM throughout. The TGI in the assay with RXF 393 renal, in the assay with SK-MEL-5 melanoma, with U251 CNS and in the assay with UACC-257 melanoma was greater than 25 µM throughout.
As for `O=C(Nc1ccccc1O)c1ccc(CNC(=O)c2sccc2Nc2ccnc(C(F)(F)F)c2)cc1`, the GI50 was 6.54 µM in the assay with HCT-15 colon; 10.9 µM in the assay with HOP-62 NSCLC; 5.72 µM in the assay with K-562 leukemia; 9.05 µM with MDA-MB-231 breast; 7.48 µM in the assay with OVCAR-3 ovarian; 5.9 µM with OVCAR-5 ovarian. For the same compound, the GI50 in the assay on RXF 393 renal is 3.28 µM; with SK-MEL-5 melanoma it was 1.94 µM; in the assay with U251 CNS, 5.44 µM; in the assay with UACC-257 melanoma, 4.61 µM. The TGI in the assay with HCT-15 colon amounted to 26.8 µM; in the assay on HOP-62 NSCLC, 42.7 µM; with K-562 leukemia, 62.5 µM; in the assay with MDA-MB-231 breast, 27.4 µM; in the assay on OVCAR-3 ovarian it was 21.6 µM; in the assay with OVCAR-5 ovarian it was 24.6 µM. The TGI in the assay with RXF 393 renal stood at 15.6 µM; with SK-MEL-5 melanoma it was 4.7 µM; in the assay on U251 CNS it was 20.8 µM; in the assay with UACC-257 melanoma it was 38.1 µM.
